From patent publication EP1079849B1, “USE OF HMG PROTEINS FOR THE PREPARATION OF MEDICAMENTS HAVING CYTOTOXIC ACTIVITY” (Istituto Di Ricerche " Giorgio Sisini", priority 1998, dated 2002) come the findings set out here.

For the assay, the system named is tumors. The assay can be described thus: DMBA-induced tumor growth in rats. Particulars: female rats with DMBA-induced tumors; control = saline solution; result in words.

Regarding “Peptide 1-19: peptide 1-19 of HMG-I, commercially available from Santa Cruz Biotechnology, Santa Cruz, CA, USA (MSESSSKSSQPLASKQEKD; UniProt P17096 1-19, looked up, fragment)”, the “tumor growth in comparison to the control” value is reported as “clearly slow down the tumor growth”.
